{"source": "patent US20180200263A1", "about": "“TOPICAL TREATMENT REGIMENS CONTAINING A PROSTAGLANDIN F2a ANALOG AND A TOPICAL STEROID” (priority 2015, published 2018)", "system": "subjects with vitiligo (depigmented areas on neck, trunk and extremities)", "assay": "Efficacy and safety study in vitiligo, blinded investigator evaluation on a score of 0 to 7", "format": "in vivo", "details": "share of the subjects in the group; after the 20 week topical treatment regimen was completed; nonfacial areas", "description": "An efficacy and safety study was conducted to compare the effects of bimatoprost monotherapy, mometasone monotherapy, and the combination of bimatoprost and mometasone. 18 randomized subjects completed the 20 week study, five coming in each of the bimatoprost monotherapy and mometasone monotherapy groups with the other eight coming in the bimatoprost/mometasone combination group. Subjects with vitiligo applied the corresponding drug(s) to depigmented areas on their neck, truck, and extremities. Per FDA request, facial areas where not treated during the study. For the bimatoprost monotherapy group, subjects were instructed to administer bimatoprost twice daily (morning and evening) for all 20 weeks. For the mometasone monotherapy group, subjects were instructed to administer mometasone once daily in the morning for weeks 1-12 and 17-20. Placebo (Cetaphil) was instructed to be administered in the morning for weeks 13-16 and in the evening for all 20 weeks. For the bimatoprost/mometasone combination group, subjects were instructed to administer mometasone once daily in the morning for weeks 1-12 and 17-20 and placebo was administered in the morning for weeks 13-16. Subjects were instructed to administer bimatoprost once daily evening for all 20 weeks. Subjects in either the bimatoprost monotherapy group or the bimatoprost/mometasone combination group the subjects were instructed to administer bimatoprost in the form of a 0.03 wt. % solution which was to be applied in a dose of 1 to 2 drops per 2 cm^2 body surface area. Subjects in either the mometasone monotherapy group or the bimatoprost/mometasone combination group the subjects were instructed to administer mometasone in the form of 0.1 wt. % mometasone furoate cream which was to be applied in a dose of 1 to 2 pea-sized quantities per anatomic area. The subjects were blind as to which group they were in and therefore which drug(s) they were administering. During the study period, the subjects were periodically evaluated by an investigator. The investigators evaluated the subjects on a score of 0 to 7 with 0 meaning that the subject's condition was worse, 1 being unchanged, 2 being slight improvement (approximately 10% improvement), 3 being mild improvement (approximately 10 to 25% improvement), 4 being moderate improvement (approximately 25 to 50% improvement), 5 being marked improvement (approximately 50 to 75% improvement), 6 being almost cleared (approximately 75 to 99% improvement), 7 being cleared (100% improvement). Like the subjects, the investigators were blind as to which group the subjects they were evaluating were in and therefore which drug(s) they were evaluating were administering."}
{"smiles": "C[C@@H]1C[C@H]2[C@@H]3CCC4=CC(=O)C=C[C@]4(C)[C@@]3(Cl)[C@@H](O)C[C@]2(C)[C@@]1(OC(=O)c1ccco1)C(=O)CCl", "note": "[mometasone, mometasone furoate]", "values": [{"measurement": "subjects with mild improvement (score 3, approximately 10 to 25% improvement)", "value": 40, "unit": "%"}, {"measurement": "subjects with slight improvement (score 2, approximately 10% improvement)", "value": 60, "unit": "%"}]}
{"smiles": "CCNC(=O)CCC/C=C\\C[C@@H]1[C@@H](/C=C/[C@@H](O)CCc2ccccc2)[C@H](O)C[C@@H]1O", "note": "[bimatoprost, Bimatoprost]", "values": [{"measurement": "subjects with mild improvement (score 3, approximately 10 to 25% improvement)", "value": 60, "unit": "%"}, {"measurement": "subjects with moderate improvement (score 4, approximately 25 to 50% improvement)", "value": 40, "unit": "%"}]}
